# Experimental data as given in patent US20260365990A1, “METHOD FOR THE PRESERVATION OF FUNCTIONAL GAMETES” (Julius-Maximilians-Universität Würzburg, in Vertretung des …, priority 2022, published 2026).
# Entries after “also recorded” stand apart in the source; their conditions may differ.
# How the values were obtained:
# spermatozoa [1] = assay: Sperm DNA fragmentation (SDF) by dispersion test, Halosperm G2 Kit; assay type: cell-based, human; conditions: for DNA-fragmentation change (SDF, ratio treated/untreated): mean±SD
# Experimental: (§1) Between 1.46 mL and 5.7 mL human semen/spermatozoa were collected from healthy males of between 25 and 50 years of age in 100 mL sample vials on site. Samples were then divided into two equal fractions each for subsequent incubation with CO (wCO) and without CO (woCO). In order to estimate the spermatozoa concentration in the samples and to establish an initial baseline for each sample, a routine spermiogram was performed before samples were transferred to gas-tight 15 mL Falcon tubes. Samples were incubated at 25-35 °C for 90 minutes with and without an activated CORS system in a closed container. During this incubation period liquefaction took place naturally. The samples were then analyzed for total motility, progressive motility, static oxidation-reduction potential, and for DNA fragmentation. Total motility, progressive motility and concentration of the samples were assessed using a CEROS II (Hamilton Thorne, Beverly, MA) computer assisted sperm analysis (CASA) system. 6 μL of a sperm sample diluted 1:1 with Multipurpose Handling Medium-Complete (MHM-C, FujiFilm/IrvineScientific, Santa Ana, CA) was measured and the concentration and level of mobility (total and progressive motility) was assessed.
# To determine DNA fragmentation a count-based microscopy assay was performed. For this spermatozoa samples were diluted using MHM-C (Multipurpose Handling Medium-Complete, FujiFilm, IrvineScientific) to a maximum of 20×E6 spermatozoa per mL and analyzed using a Halo Sperm G2 Kit (Halotech, Madrid, Spain). Samples were mixed with the prepared agarose according to manufacturer instructions. 8 μL of the resulting mixture was then put on microscopy slides and cooled down for 5 minutes by removing the heat source. The prepared samples were further treated according to the manufacturer's instructions: denaturant for 7 minutes, lysis solution for 20 minutes, distilled water for 5 minutes, 70% ethanol for 2 minutes, 100% ethanol for 2 minutes, eosin staining solution for 7-10 minutes, and thiazine staining solution for 7-10 minutes. At least 300 spermatozoa were then analyzed using a bright field microscope.
# (§2) In this example, sperm samples were treated with either one, three, or six CORS capsules, each loaded with 5 mg Mo-CORM (corresponds to 0.44 mL CO) for 60 to 270 mins, or left untreated for the same amount of time.
# (§3) Human sperm was collected from healthy volunteers in 100 ml specimen containers. Afterwards, the ejaculate was split into equal parts and filled into 15 mL gas tight falcon tubes, with one of the samples being exposed to one or more activated CORS. Then, both samples were analyzed for motility parameters via computer assisted sperm analysis (CASA), the static oxidation-reduction potential (sORP) via MiOXSYS and sperm DNA-fragmentation (SDF) via dispersion test with Halosperm G2 Kit after a predetermined time.
# Sperm DNA fragmentation (SDF) was assessed via dispersion test using a Halosperm G2 Kit (From Halotech, Madrid, Spain) following manufacturer's specifications. In brief, the samples were diluted to a maximum of 20 mio/mL. The samples were, then, mixed with the prepared agarose. 8 μL of the mixture was transferred on slides and cooled down for 5 minutes. Different reagents were added and discarded after the set time: Denaturant agent was added for 7 minutes, lysis solution for 20 minutes, distilled water for 5 minutes, 70% ethanol for 2 minutes, 100% ethanol for 2 minutes, eosin staining solution for 7-10 minutes, and thiazine staining solution for 7-10 minutes. A minimum of 400 sperms were analyzed using an Olympus IX73 Inverted LED Fluorescence Microscope.
# spermatozoa [2] = assay: Computer assisted sperm analysis (CASA, CEROS II) of human spermatozoa treated with CO vs. without CO: total motility, progressive motility, average path velocity (VAP); assay type: cell-based; conditions: for Change in progressive motility (ratio treated/untreated) / Change of VAP (ratio treated/untreated) / Change in motility (ratio treated/untreated) / Change in velocity of the sperm cells (VAP, ratio treated/untreated): mean±SD
# Experimental: as §1, §2, §3
# Total motility, progressive motility, VAP, and concentration of the samples were tested using a CEROS II (Hamilton Thorne, Beverly, MA) computer assisted sperm analysis (CASA) system. 6 μL of a sperm sample diluted 1:1 with Multipurpose Handling Medium-Complete (MHM-C, Fuji Film/Irvine Scientific, Santa Ana, CA) was investigated with the CASA system, and the level of mobility was assessed.
# spermatozoa [3] = assay: Static oxidation-reduction potential (sORP) of human sperm samples by MiOXSYS; assay type: cell-based; conditions: for Change in oxidation-reduction potential (sORP, ratio treated/untreated): mean±SD; for Oxidation-reduction potential, samples 42_1 and 38_7 (in words): samples with drastically elevated untreated values, FIGS. 7D and 8D
# Experimental: as §1
# A Male Infertility Oxidative System (MiOXSYS, Englewood, CO) was used to determine static oxidation-reduction potential (sORP) levels. 30 μL of the sperm samples were transferred to the sample application port on a MiOXSYS sensor and analyzed for 2 minutes.
# as §2, §3
# An oxidative male infertility measuring System (MiOXSYS, Englewood, CO) was used to determine static oxidation-reduction potential (SORP) levels following manufacturer's specifications. 30 μL of sample were transferred to the sample application port onto a MiOXSYS sensor and analyzed for 2 minutes. The results were expressed in milli Volt (mV) and normalized to the seminal sperm concentration (mV/106 sperm/mL).
# [4] = 0.44 mL CO (5 mg Mo-CORM), 90 min
# [5] = 1.32 mL CO (15 mg Mo-CORM), 60 min
# [6] = 1.32 mL CO (15 mg Mo-CORM), 90 min
# [7] = 1.32 mL CO (15 mg Mo-CORM), 180 min
# [8] = 1.32 mL CO (15 mg Mo-CORM), 270 min
# [9] = 2.64 mL CO (30 mg Mo-CORM), 90 min
# [10] = Example 3, 60 min and 90 min, 0.44 mL and 1.32 mL CO
# [11] = Example 3, up to 90 min, 0.44-2.64 mL CO
smiles,measurement,setting,value
"[C-]#[O+] [CO, carbon monoxide]","DNA-fragmentation change (SDF, ratio treated/untreated)",spermatozoa [1]; [4],0.83±0.09 fold
same,"DNA-fragmentation change (SDF, ratio treated/untreated)",spermatozoa [1]; [5],0.77±0.07 fold
same,"DNA-fragmentation change (SDF, ratio treated/untreated)",spermatozoa [1]; [6],0.67±0.24 fold
same,"DNA-fragmentation change (SDF, ratio treated/untreated)",spermatozoa [1]; [7],0.90±0.11 fold
same,"DNA-fragmentation change (SDF, ratio treated/untreated)",spermatozoa [1]; [8],0.90±0.19 fold
same,"DNA-fragmentation change (SDF, ratio treated/untreated)",spermatozoa [1]; [9],1.31±0.55 fold
same,Correlation of CO effect on SDF with untreated SDF (in words),"spermatozoa [1]; 60 min and 90 min, 15 mg CORM, FIG. 10",particularly effective in subjects that suffer from high sperm oxidation-reduction potential and/or DNA-fragmentation
same,Relative DNA fragmentation wCO/woCO (in words),"spermatozoa [1]; Example 2, 15 mg Mo-CORM, 90 min, 25-35 °C, 3 subjects, FIG. 3",DNA fragmentation is reduced in samples that were contacted with CO; also recorded: a reduction in DNA fragmentation
same,"DNA fragmentation, subjects 3 and 4 (in words)","spermatozoa [1]; Example 2, FIG. 3, treated vs untreated aliquots of same donor",less DNA fragmentation
same,Spermatozoan DNA-fragmentation (SDF) vs untreated (in words),spermatozoa [1]; [10],reduced
same,"DNA fragmentation, samples 42_1 and 38_7 (in words)","spermatozoa [1]; samples with drastically elevated untreated values, FIGS. 7E and 8E",strong reduction
same,Change in progressive motility (ratio treated/untreated),spermatozoa [2]; [4],0.97±0.12 fold
same,Change of VAP (ratio treated/untreated),spermatozoa [2]; [4],1.01±0.08 fold
same,Change in motility (ratio treated/untreated),"spermatozoa [2]; 0.44 mL CO (5 mg Mo-CORM, one CORS), 90 min",0.98±0.12 fold
same,Change in progressive motility (ratio treated/untreated),spermatozoa [2]; [5],0.85±0.13 fold
same,"Change in velocity of the sperm cells (VAP, ratio treated/untreated)",spermatozoa [2]; [5],0.94±0.09 fold
same,Change in motility (ratio treated/untreated),spermatozoa [2]; [6],0.99±0.03 fold
same,Change in progressive motility (ratio treated/untreated),spermatozoa [2]; [6],0.92±0.17 fold
same,"Change in velocity of the sperm cells (VAP, ratio treated/untreated)",spermatozoa [2]; [6],0.96±0.04 fold
same,Change in motility (ratio treated/untreated),spermatozoa [2]; [7],1.16±0.37 fold
same,Change in progressive motility (ratio treated/untreated),spermatozoa [2]; [7],0.72±0.19 fold
same,"Change in velocity of the sperm cells (VAP, ratio treated/untreated)",spermatozoa [2]; [7],0.79±0.13 fold
same,Change in motility (ratio treated/untreated),spermatozoa [2]; [8],0.94±0.20 fold
same,Change in progressive motility (ratio treated/untreated),spermatozoa [2]; [8],1.04±0.48 fold
same,"Change in velocity of the sperm cells (VAP, ratio treated/untreated)",spermatozoa [2]; [8],0.97±0.08 fold
same,Change in motility (ratio treated/untreated),"spermatozoa [2]; 1.32 mL CO (15 mg Mo-CORM, three CORS), 60 min",1.13±0.41 fold
same,Change in progressive motility (ratio treated/untreated),spermatozoa [2]; [9],0.88±0.10 fold
same,Change of VAP (ratio treated/untreated),spermatozoa [2]; [9],1.03±0.03 fold
same,Change in motility (ratio treated/untreated),"spermatozoa [2]; 2.64 mL CO (30 mg Mo-CORM, six CORS), 90 min",0.90±0.12 fold
same,Relative total motility wCO/woCO (in words),"spermatozoa [2]; Example 2, 15 mg Mo-CORM, 90 min, 25-35 °C, 5 subjects, FIG. 4A",no differences between samples that were contacted with CO (wCO) and without CO (woCO)
same,Relative progressive motility wCO/woCO (in words),"spermatozoa [2]; Example 2, 15 mg Mo-CORM, 90 min, 25-35 °C, 5 subjects, FIG. 4B, exception subject 6",progressive motility is increased for wCO as compared to woCO; also recorded: an improvement of progressive motility
same,Effect on spermatozoan motility (in words),"spermatozoa [2]; Example 3, 60 min or 90 min, 0.44 mL or 1.32 mL CO",no negative effects on spermatozoan motility
same,Effect on progressive motility vs untreated (in words),spermatozoa [2]; [11],"did not impair sperm motility, progressive motility"
same,Effect on sperm motility vs untreated (in words),spermatozoa [2]; [11],did not impair sperm motility
same,Effect on velocity vs untreated (in words),spermatozoa [2]; [11],"did not impair sperm motility, progressive motility, and velocity"
same,"Change in oxidation-reduction potential (sORP, ratio treated/untreated)",spermatozoa [3]; [4],0.89±0.17 fold
same,"Change in oxidation-reduction potential (sORP, ratio treated/untreated)",spermatozoa [3]; [5],0.57±0.35 fold
same,"Change in oxidation-reduction potential (sORP, ratio treated/untreated)",spermatozoa [3]; [6],0.91±0.12 fold
same,"Change in oxidation-reduction potential (sORP, ratio treated/untreated)",spermatozoa [3]; [7],1.02±0.32 fold
same,"Change in oxidation-reduction potential (sORP, ratio treated/untreated)",spermatozoa [3]; [8],1.13±0.28 fold
same,"Change in oxidation-reduction potential (sORP, ratio treated/untreated)",spermatozoa [3]; [9],0.59±0.24 fold
same,Correlation of CO effect on sORP with untreated sORP (in words),"spermatozoa [3]; 60 min and 90 min, 15 mg CORM, FIG. 9",particularly effective in subjects that suffer from high sperm oxidation-reduction potential
same,Relative oxidation-reduction potential wCO/woCO (in words),"spermatozoa [3]; Example 2, 15 mg Mo-CORM, 90 min, 25-35 °C, 6 subjects, FIG. 2",show a trend to be lower in the samples that were contacted with CO; also recorded: a reduction in oxidative stress/ROS
same,Oxidation-reduction potential vs untreated (in words),spermatozoa [3]; [10],reduced
same,"Oxidation-reduction potential, samples 42_1 and 38_7 (in words)",spermatozoa [3],strong reduction
same,"Oxidation-reduction potential, samples 42_1 and 38_7 (in words)",spermatozoa [3]; listed as carbon monoxide,reduced oxidation-reduction potential
